{"source": "patent US20110045101A1", "about": "“FUNGICIDAL SUBSTITUTED AZOLES” (E.I. Du Pont De Nemours and Company, priority 2009, published 2011)", "format_in_all_cases": "in vivo", "details_in_all_cases": "100 = 100% disease control", "key": {"Botrytis cinerea": {"test_system": "Botrytis cinerea", "test": "Test C: tomato Botrytis on tomato seedlings, sprayed the day before inoculation, visual disease rating", "how_it_was_run": "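Disease ratings refer to tomato seedlings treated by run-off spraying with compound suspensions, mostly 200 ppm (500 g/ha equivalent) and in marked cases 40 ppm. Carrier: acetone/purified water 50/50 with 250 ppm polyhydric alcohol ester surfactant, after predissolving in acetone.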"}, "Alternaria solani": {"test_system": "Alternaria solani", "test": "Test D: tomato early blight, sprayed the day before inoculation, visual disease rating", "how_it_was_run": "(§1)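 Acetone solution (3% of final volume) of each compound is suspended in 50/50 acetone/water with 250 ppm Trem® 014. Plants are sprayed to run-off at 200 ppm, equivalent to 500 g/ha, or at 40 ppm for starred values.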"}, "Septoria nodorum": {"test_system": "Septoria nodorum", "test": "Test F: wheat glume blotch on wheat seedlings, sprayed the day before inoculation, visual disease rating", "how_it_was_run": "as §1"}, "Septoria tritici": {"test_system": "Septoria tritici", "test": "Test G: wheat leaf blotch on wheat seedlings, sprayed the day before inoculation, visual disease rating", "how_it_was_run": "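Visual disease ratings taken 19 days after transfer to a 20° C growth chamber, following 48 h in saturated atmosphere at 24° C. Seedlings had been sprayed to run-off one day before spore inoculation. Dose 200 ppm, or 40 ppm where starred.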"}, "[1]": {"test_system": "Puccinia recondita f. sp. tritici", "test": "Test H: wheat leaf rust, test suspension sprayed after inoculation of wheat seedlings, visual disease rating", "how_it_was_run": "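Wheat seedlings inoculated with P. recondita spores, held 24 h saturated at 20 °C, then 2 days in growth chamber at 20 °C; compound suspension (acetone/water with Trem 014) sprayed to run-off afterwards. Rated visually; 200 ppm (≈500 g/ha) unless marked *, which denotes 40 ppm.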"}, "[2]": {"test_system": "Puccinia recondita f. sp. tritici", "test": "Test I: wheat leaf rust on wheat seedlings, sprayed the day before inoculation, visual disease rating", "how_it_was_run": "as §1"}, "[3]": {"test_system": "Erysiphe graminis f. sp. tritici", "test": "Test J: wheat powdery mildew on wheat seedlings, sprayed the day before inoculation, visual disease rating", "how_it_was_run": "as §1"}, "[4]": {"details": "200 ppm, 0 = no control relative to controls"}}, "note": "Marks after values point to notes of the source that are not given here.", "data": [{"molecule": "COc1cc(F)c(-n2c(Cl)nc(C)c2-c2cccc(F)c2)c(F)c1", "note": "[compound 686]", "values": [{"measurement": "Test C disease control rating", "setting": "Botrytis cinerea; 40 ppm (marked *)", "value": "100* %"}, {"measurement": "Test D disease control rating", "setting": "Alternaria solani; 40 ppm (marked *)", "value": "100* %"}, {"measurement": "Test F disease control rating", "setting": "Septoria nodorum; 40 ppm (marked *)", "value": "82* %"}, {"measurement": "Test G disease control rating", "setting": "Septoria tritici; 40 ppm (marked *)", "value": "98* %"}, {"measurement": "Test H disease control rating", "setting": "[1]; 40 ppm (marked *)", "value": "98* %"}, {"measurement": "Test I disease control rating", "setting": "[2]; 40 ppm (marked *)", "value": "99* %"}, {"measurement": "Test J disease control rating", "setting": "[3]; 40 ppm (marked *)", "value": "98* %"}]}, {"molecule": "CN(C)c1ccc(-n2c(Br)nc(N(C)C)c2-c2c(F)cccc2F)cc1Br", "note": "[compound 689]", "values": [{"measurement": "Test C disease control rating", "setting": "Botrytis cinerea; [4]", "value": 0, "unit": "%"}, {"measurement": "Test D disease control rating", "setting": "Alternaria solani; [4]", "value": 0, "unit": "%"}, {"measurement": "Test F disease control rating", "setting": "Septoria nodorum; [4]", "value": 0, "unit": "%"}, {"measurement": "Test G disease control rating", "setting": "Septoria tritici; [4]", "value": 0, "unit": "%"}, {"measurement": "Test H disease control rating", "setting": "[1]; [4]", "value": 0, "unit": "%"}, {"measurement": "Test I disease control rating", "setting": "[2]; [4]", "value": 0, "unit": "%"}, {"measurement": "Test J disease control rating", "setting": "[3]; [4]", "value": 0, "unit": "%"}]}, {"molecule": "Cc1nc(Cl)c(-c2c(F)ccc(C#N)c2F)n1-c1ccc(Cl)cc1", "note": "[Compound 430, 3-[4-chloro-1-(4-chlorophenyl)-2-methyl-1H-imidazol-5-yl]-2,4-difluorobenzonitrile]", "values": [{"measurement": "pest or weed control at 200 ppm", "setting": "Botrytis cinerea; Botrytis cinerea, 120 h, 200 ppm, 0 = no control relative to controls", "value": 100, "unit": "%"}, {"measurement": "pest or weed control at 200 ppm", "setting": "Alternaria solani; Alternaria solani, 168 h, 200 ppm, 0 = no control relative to controls", "value": 100, "unit": "%"}, {"measurement": "pest or weed control at 200 ppm", "setting": "Septoria nodorum; Parastagonospora nodorum, 264 h, 200 ppm, 0 = no control relative to controls", "value": 100, "unit": "%"}, {"measurement": "pest or weed control at 200 ppm", "setting": "Septoria tritici; Zymoseptoria tritici, 504 h, 200 ppm, 0 = no control relative to controls", "value": 100, "unit": "%"}, {"measurement": "pest or weed control at 200 ppm", "setting": "[1]; Puccinia recondita, 96 h, 200 ppm, 0 = no control relative to controls", "value": 0, "unit": "%"}, {"measurement": "pest or weed control at 200 ppm", "setting": "[2]; Puccinia recondita, 168 h, 200 ppm, 0 = no control relative to controls", "value": 100, "unit": "%"}, {"measurement": "pest or weed control at 200 ppm", "setting": "[3]; Blumeria graminis, 168 h, 200 ppm, 0 = no control relative to controls", "value": 100, "unit": "%"}]}, {"molecule": "COc1cc(F)c(-c2c(Cl)nc(Cl)n2-c2ccccc2)c(F)c1Cl", "note": "[compound 428]", "values": [{"measurement": "Test C disease control rating", "setting": "Botrytis cinerea; [4]", "value": 100, "unit": "%"}, {"measurement": "Test D disease control rating", "setting": "Alternaria solani; [4]", "value": 100, "unit": "%"}, {"measurement": "Test F disease control rating", "setting": "Septoria nodorum; [4]", "value": 0, "unit": "%"}, {"measurement": "Test G disease control rating", "setting": "Septoria tritici; [4]", "value": 99, "unit": "%"}, {"measurement": "Test H disease control rating", "setting": "[1]; [4]", "value": 0, "unit": "%"}, {"measurement": "Test I disease control rating", "setting": "[2]; [4]", "value": 100, "unit": "%"}, {"measurement": "Test J disease control rating", "setting": "[3]; [4]", "value": 100, "unit": "%"}]}, {"molecule": "CCOc1cc(F)c(-c2c(Cl)ncn2-c2cccc(F)c2)c(F)c1", "note": "[compound 703]", "values": [{"measurement": "Test C disease control rating", "setting": "Botrytis cinerea; [4]", "value": 100, "unit": "%"}, {"measurement": "Test D disease control rating", "setting": "Alternaria solani; [4]", "value": 100, "unit": "%"}, {"measurement": "Test F disease control rating", "setting": "Septoria nodorum; [4]", "value": 100, "unit": "%"}, {"measurement": "Test G disease control rating", "setting": "Septoria tritici; [4]", "value": 99, "unit": "%"}, {"measurement": "Test H disease control rating", "setting": "[1]; [4]", "value": 39, "unit": "%"}, {"measurement": "Test I disease control rating", "setting": "[2]; [4]", "value": 98, "unit": "%"}, {"measurement": "Test J disease control rating", "setting": "[3]; [4]", "value": 97, "unit": "%"}]}, {"molecule": "COc1cc(OC)cc(-n2c(Cl)nc(C)c2-c2c(F)cc(OC)cc2F)c1", "note": "[Compound 694, 2-chloro-5-(2,6-difluoro-4-methoxyphenyl)-1-(3,5-dimethoxyphenyl)-4-methyl-1H-imidazole]", "values": [{"measurement": "pest or weed control at 40 ppm", "setting": "Botrytis cinerea; Botrytis cinerea, 120 h, 40 ppm (marked *)", "value": 100, "unit": "%"}, {"measurement": "pest or weed control at 40 ppm", "setting": "Alternaria solani; Alternaria solani, 168 h, 40 ppm (marked *)", "value": 100, "unit": "%"}, {"measurement": "pest or weed control at 40 ppm", "setting": "Septoria nodorum; Parastagonospora nodorum, 264 h, 40 ppm (marked *)", "value": 99, "unit": "%"}, {"measurement": "pest or weed control at 40 ppm", "setting": "Septoria tritici; Zymoseptoria tritici, 504 h, 40 ppm (marked *)", "value": 98, "unit": "%"}, {"measurement": "pest or weed control at 40 ppm", "setting": "[1]; Puccinia recondita, 96 h, 40 ppm (marked *)", "value": 0, "unit": "%"}, {"measurement": "pest or weed control at 40 ppm", "setting": "[2]; Puccinia recondita, 168 h, 40 ppm (marked *)", "value": 99, "unit": "%"}, {"measurement": "pest or weed control at 40 ppm", "setting": "[3]; Blumeria graminis, 168 h, 40 ppm (marked *)", "value": 98, "unit": "%"}]}, {"molecule": "CN(C)c1ccc(-n2cnc(Cl)c2-c2c(F)cccc2F)cc1", "note": "[compound 635]", "values": [{"measurement": "Test C disease control rating", "setting": "Botrytis cinerea; 40 ppm (marked *)", "value": "99* %"}, {"measurement": "Test D disease control rating", "setting": "Alternaria solani; 40 ppm (marked *)", "value": "0* %"}, {"measurement": "Test F disease control rating", "setting": "Septoria nodorum; 40 ppm (marked *)", "value": "0* %"}, {"measurement": "Test G disease control rating", "setting": "Septoria tritici; 40 ppm (marked *)", "value": "81* %"}, {"measurement": "Test H disease control rating", "setting": "[1]; 40 ppm (marked *)", "value": "0* %"}, {"measurement": "Test I disease control rating", "setting": "[2]; 40 ppm (marked *)", "value": "39* %"}, {"measurement": "Test J disease control rating", "setting": "[3]; 40 ppm (marked *)", "value": "0* %"}]}, {"molecule": "Clc1ccc(-c2c(Cl)nc(Br)n2Cc2cccc(Cl)c2)cc1", "note": "[compound 290]", "values": [{"measurement": "Test C disease control rating", "setting": "Botrytis cinerea; 200 ppm, 0 = no control", "value": 95, "unit": "%"}, {"measurement": "Test D disease control rating", "setting": "Alternaria solani; 200 ppm, 0 = no control", "value": 0, "unit": "%"}, {"measurement": "Test F disease control rating", "setting": "Septoria nodorum; 200 ppm, 0 = no control", "value": 0, "unit": "%"}, {"measurement": "Test G disease control rating", "setting": "Septoria tritici; 200 ppm, 0 = no control", "value": 85, "unit": "%"}, {"measurement": "Test H disease control rating", "setting": "[1]; 200 ppm, 0 = no control", "value": 11, "unit": "%"}, {"measurement": "Test I disease control rating", "setting": "[2]; 200 ppm, 0 = no control", "value": 19, "unit": "%"}, {"measurement": "Test J disease control rating", "setting": "[3]; 200 ppm, 0 = no control", "value": 0, "unit": "%"}]}, {"molecule": "COc1cc(F)c(-c2c(N(C)C)ncn2Cc2ccc(Cl)cc2)c(F)c1", "note": "[compound 265]", "values": [{"measurement": "Test C disease control rating", "setting": "Botrytis cinerea; 200 ppm, 0 = no control", "value": 97, "unit": "%"}, {"measurement": "Test D disease control rating", "setting": "Alternaria solani; 200 ppm, 0 = no control", "value": 0, "unit": "%"}, {"measurement": "Test F disease control rating", "setting": "Septoria nodorum; 200 ppm, 0 = no control", "value": 60, "unit": "%"}, {"measurement": "Test G disease control rating", "setting": "Septoria tritici; 200 ppm, 0 = no control", "value": 86, "unit": "%"}, {"measurement": "Test H disease control rating", "setting": "[1]; 200 ppm, 0 = no control", "value": 32, "unit": "%"}, {"measurement": "Test I disease control rating", "setting": "[2]; 200 ppm, 0 = no control", "value": 61, "unit": "%"}, {"measurement": "Test J disease control rating", "setting": "[3]; 200 ppm, 0 = no control", "value": 0, "unit": "%"}]}]}
